This is an account of results in ChEMBL document CHEMBL4765259, “Synthesis and biological evaluation of novel shikonin-benzo[b]furan derivatives as tubulin polymerization inhibitors targeting the colchicine binding site” (Eur J Med Chem, 2020).

Activity calls are given as the source filed them. No cut-off for these calls is given here.

In data set [1] the test system is HT-29. The data set can be described thus: Induction of microtubule disruption in human HT-29 cells at 0.5 uM incubated for 24 hrs by DAPI staining based confocal fluorescence microscopic analysis. In kind it is cell-based.
Data set [2] concerns HT-29. The data set can be described thus: Induction of apoptosis in human HT-29 cells assessed as viable cells at 1 uM measured after 24 hrs by Annexin V-FITC/propidium iodide staining based flow cytometry (reference value: 98.3 %). The class given is functional. The settings on record: read-out: Activity. (In general: In flow cytometry, cells or beads pass a laser one at a time.)

For data set [3], the system named is HT-29. The data set can be described thus: Induction of apoptosis in human HT-29 cells assessed as necrotic cells at 1 uM measured after 24 hrs by Annexin V-FITC/propidium iodide staining based flow cytometry (reference value: 0.1 %). In kind it is functional.
For data set [4], the system named is HT-29. The data set can be described thus: Cell cycle arrest in human HT29 cells assessed as cell accumulation at G2 phase at 1 uM incubated for 24 hrs by propidium iodide staining based flow cytometry (reference value: […]). The class given is functional.
The test system of another data set is HCT-116. The data set can be described thus: cells. Particulars: Homo sapiens, HCT-116, 48 h.
Data set [5] relates to HT-29. The data set can be described thus: Induction of apoptosis in human HT-29 cells assessed as early apoptotic cells at […] measured after 24 hrs by Annexin V-FITC/propidium iodide staining based flow cytometry (reference value: 1.6 %). The class given is functional. Particulars: dose 0.25 µM.
Data set [6] concerns HT-29. The data set can be described thus: Cell cycle arrest in human HT29 cells assessed as cell accumulation at G2 phase at 0.5 uM incubated for 24 hrs by propidium iodide staining based flow cytometry (reference value: […]). The class given is functional.
In data set [7] the test system is HT-29. The data set can be described thus: Cell cycle arrest in human HT29 cells assessed as cell accumulation at S phase at […] incubated for 24 hrs by propidium iodide staining based flow cytometry (reference value: […] %). In kind it is functional. The settings on record: dose 0.25 µM.
The subject of the next data set is HepG2. The data set can be described thus: Antiproliferative activity against human HepG2 cells incubated for 48 hrs by MTT assay. In kind it is functional, cell-based. The settings on record: HepG2, 48 h. A general note: Tetrazolium dyes change colour on reduction, which living cells bring about.
The subject of data set [8] is HT-29. The data set can be described thus: Induction of apoptosis in human HT-29 cells assessed as viable cells at 0.5 uM measured after 24 hrs by Annexin V-FITC/propidium iodide staining based flow cytometry (reference value: 98.3 %). The class given is functional. Particulars: read-out: Activity.
Data set [9] deals with HT-29. The data set can be described thus: Cell cycle arrest in human HT29 cells assessed as cell accumulation at S phase at 0.5 uM incubated for 24 hrs by propidium iodide staining based flow cytometry (reference value: […] %). The class given is functional.
Data set [10] deals with HT-29. The data set can be described thus: Induction of apoptosis in human HT-29 cells assessed as late apoptotic cells at […] measured after 24 hrs by Annexin V-FITC/propidium iodide staining based flow cytometry (reference value: 0.0 %). In kind it is functional. The settings on record: dose 0.25 µM.
The test system of data set [11] is HT-29. The data set can be described thus: Induction of apoptosis in human HT-29 cells assessed as late apoptotic cells at 0.5 uM measured after 24 hrs by Annexin V-FITC/propidium iodide staining based flow cytometry (reference value: 0.0 %). In kind it is functional.
Data set [12] can be described thus: Antiproliferative activity against human HEK293T cells incubated for 48 hrs by MTT assay. The class given is cell-based, HEK-293T.
The test system of data set [13] is HT-29. The data set can be described thus: Antiproliferative activity against human HT29 cells incubated for 48 hrs by MTT assay. The class given is functional, cell-based. Particulars: HT-29, 48 h.
Data set [14] deals with K562. The data set can be described thus: Antiproliferative activity against drug resistant human K562 cells incubated for 48 hrs by MTT assay. The class given is functional, cell-based. Particulars: K562, 48 h.
In data set [15] the test system is HT-29. The data set can be described thus: Cell cycle arrest in human HT29 cells assessed as cell accumulation at G1 phase at […] incubated for 24 hrs by propidium iodide staining based flow cytometry (reference value: 69.19 %). The class given is functional. The settings on record: dose 0.25 µM.
In data set [16] the test system is HT-29. The data set can be described thus: Induction of apoptosis in human HT-29 cells assessed as viable cells at […] measured after 24 hrs by Annexin V-FITC/propidium iodide staining based flow cytometry (reference value: 98.3 %). The class given is functional. Particulars: dose 0.25 µM, read-out: Activity.
For data set [17], the system named is HT-29. The data set can be described thus: Cell cycle arrest in human HT29 cells assessed as cell accumulation at G1 phase at 1 uM incubated for 24 hrs by propidium iodide staining based flow cytometry (reference value: 69.19 %). In kind it is functional.
In data set [18] the test system is HT-29. The data set can be described thus: Induction of apoptosis in human HT-29 cells assessed as late apoptotic cells at 1 uM measured after 24 hrs by Annexin V-FITC/propidium iodide staining based flow cytometry (reference value: 0.0 %). The class given is functional.
Data set [19] relates to HT-29. The data set can be described thus: Cell cycle arrest in human HT29 cells assessed as cell accumulation at G2 phase at […] incubated for 24 hrs by propidium iodide staining based flow cytometry (reference value: […]). Particulars: dose 0.25 µM. In kind it is functional.
A short description of data set [20]: Antiproliferative activity against human LO2 cells incubated for 48 hrs by MTT assay. In kind it is cell-based, L02.
Data set [21] concerns HT-29. The data set can be described thus: Induction of apoptosis in human HT-29 cells assessed as necrotic cells at 0.5 uM measured after 24 hrs by Annexin V-FITC/propidium iodide staining based flow cytometry (reference value: 0.1 %). The class given is functional.
For data set [22], the system named is HT-29. The data set can be described thus: Induction of apoptosis in human HT-29 cells assessed as early apoptotic cells at 0.5 uM measured after 24 hrs by Annexin V-FITC/propidium iodide staining based flow cytometry (reference value: 1.6 %). In kind it is functional.
Data set [23] deals with HT-29. The data set can be described thus: Induction of apoptosis in human HT-29 cells assessed as early apoptotic cells at 1 uM measured after 24 hrs by Annexin V-FITC/propidium iodide staining based flow cytometry (reference value: 1.6 %). The class given is functional.
The test system of data set [24] is K562. The data set can be described thus: cells. Particulars: Homo sapiens, K562, 48 h.
Description: Antiproliferative activity against human K562 cells incubated for 48 hrs by MTT assay
For data set [25], the system named is MCF7. The data set can be described thus: cells. The settings on record: Homo sapiens, MCF7, 48 h.
Data set [26] has as its system HT-29. The data set can be described thus: Induction of apoptosis in human HT-29 cells assessed as necrotic cells at […] measured after 24 hrs by Annexin V-FITC/propidium iodide staining based flow cytometry (reference value: 0.1 %). In kind it is functional. The settings on record: dose 0.25 µM.
Data set [27] can be described thus: Inhibition of tubulin polymerization (unknown origin) measured every 2 mins for 60 mins by spectrophotometric method. Also on record: species or system Homo sapiens.
The subject of data set [28] is HT-29. The data set can be described thus: Cell cycle arrest in human HT29 cells assessed as cell accumulation at G1 phase at 0.5 uM incubated for 24 hrs by propidium iodide staining based flow cytometry (reference value: 69.19 %). The class given is functional.
In data set [29] the test system is HT-29. The data set can be described thus: Cell cycle arrest in human HT29 cells assessed as cell accumulation at S phase at 1 uM incubated for 24 hrs by propidium iodide staining based flow cytometry (reference value: […] %). The class given is functional.
Data set [30] has as its system MCF7. The data set can be described thus: cells. The settings on record: Homo sapiens, MCF7, 48 h. This is another data set of the same source.
Description: Antiproliferative activity against drug-resistant human MCF7 cells incubated for 48 hrs by MTT assay
The next data set concerns A549. The data set can be described thus: cells. Particulars: Homo sapiens, A549, 48 h.
The subject of another data set is MDA-MB-231. The data set can be described thus: cells. Particulars: Homo sapiens, MDA-MB-231, 48 h.

Description for HCT-116: Antiproliferative activity against human HCT116 cells incubated for 48 hrs by MTT assay

In the case of `CC(=O)O[C@H]1C(=O)[C@@]2(C)[C@H]([C@H](OC(=O)c3ccccc3)[C@]3(O)C[C@H](OC(=O)[C@H](O)[C@@H](NC(=O)c4ccccc4)c4ccccc4)C(C)=C1C3(C)C)[C@]1(OC(C)=O)CO[C@@H]1C[C@@H]2O`, the result with HT-29 [1] was inactive.

`COc1cc2c(c(OC)c1OC)-c1ccc(OC)c(=O)cc1[C@@H](NC(C)=O)CC2` [COLCHICINE]: the viability at 1 µM with HT-29 [2] came out at 67.1%. The Activity with HT-29 [3] stood at 0.4%; with HT-29 [4] it was 40.41%; in the data set on HT-29 [5], 7.6%; with HT-29 [6], 18.25%; in the data set with HT-29 [7], 24.65%; in the data set on HT-29 [9] it was 54.64%. Also, the Activity in the data set on HT-29 [10] is listed as 5.2%; with HT-29 [11], 10.5%; in the data set on HT-29 [15], 57.62%; with HT-29 [17] it was 23.93%; with HT-29 [18], 16.8%; with HT-29 [19], 17.73%. For the same compound, the Activity in the data set with HT-29 [21] amounted to 1.3%; with HT-29 [22] it was 12.1%; with HT-29 [23] it was 15.8%; with HT-29 [26], 0.3%; in the data set with HT-29 [28], 27.11%; in the data set on HT-29 [29], 35.66%. Besides, the IC50 with HCT-116 turned out to be 2130 nM; in the data set on HepG2, 1470 nM; in the data set with HT-29 [13], 1810 nM; in the data set on K562 [14] it was 6590 nM; in the data set with K562 [24], 440 nM; with MCF7 [25], 110 nM. The IC50 came to 2110 nM in [27], 520 nM in the data set on MCF7 [30], 1170 nM in the data set with A549 and 2940 nM with MDA-MB-231. Besides, the viability at 0.5 µM with HT-29 [8] stood at 76.1%. The CC50 at 48 h came to 8430 nM in data set [12] and 9180 nM in data set [20]. Moreover, in the data set with HT-29 [16], the viability at […] amounted to 87%. In addition, in the data set on HT-29 [1], the result was Active.

For orientation: IC50 means the concentration that gives 50% inhibition. A high value points to weaker potency in that assay. A word on the CC50: it is the concentration giving 50% cytotoxicity. Read a high CC50 as better tolerance by the cells.
